Measurements as given in ChEMBL document CHEMBL2413017, “Identification of novel HDAC inhibitors through cell based screening and their evaluation as potential anticancer agents” (Bioorg Med Chem Lett, 2013).
Calls of active or inactive are those of the source. No cut-off for these calls is given here.

Assays:
SK-OV-3 = test: Cytotoxicity against human SKOV3 cells; format: functional, cell-based
[1] = Cytotoxicity against human MiaPaCa cells; format: functional, cell-based; conditions: MIA PaCa-2
MIA PaCa-2 [2] = test: Antitumor activity against human MIAPaCa2 cells xenografted in Ncr mouse assessed as tumor growth inhibition at 80 mg/kg, ip administered daily for 22 days measured on day 25 relative to vehicle-treated control; format: functional, organism-based; parameters: dose 80 mg/kg
Histone deacetylase 4 = Histone deacetylase 4 (Homo sapiens, UniProt P56524); test: Inhibition of HDAC4 (unknown origin)
[3] = Cytotoxicity against human MV522 cells; format: functional, cell-based
[4] = Cytotoxicity against human SNU880 cells; format: functional, cell-based
Histone deacetylase 8 = target: T1, Histone deacetylase 8 (Homo sapiens, UniProt Q9BY41); test: Inhibition of HDAC8 (unknown origin)
T1 sequence (Q9BY41 whole entry): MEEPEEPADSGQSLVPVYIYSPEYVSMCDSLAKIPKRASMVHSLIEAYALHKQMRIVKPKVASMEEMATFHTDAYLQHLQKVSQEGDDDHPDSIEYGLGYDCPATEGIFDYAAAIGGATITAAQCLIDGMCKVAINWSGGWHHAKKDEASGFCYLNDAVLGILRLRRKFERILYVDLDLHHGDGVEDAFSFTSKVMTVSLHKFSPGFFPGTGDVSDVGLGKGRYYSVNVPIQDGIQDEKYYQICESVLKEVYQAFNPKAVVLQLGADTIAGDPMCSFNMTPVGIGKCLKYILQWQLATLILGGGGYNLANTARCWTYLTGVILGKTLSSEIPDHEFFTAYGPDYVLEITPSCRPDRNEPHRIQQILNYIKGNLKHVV

[5] = Cytotoxicity against human MIHA cells; format: functional, cell-based
Histone deacetylase 9 = Histone deacetylase 9 (Homo sapiens, UniProt Q9UKV0); test: Inhibition of HDAC9 (unknown origin)
A2780 = test: Cytotoxicity against human A2780 cells; format: functional, cell-based
MIA PaCa-2 [6] = test: Antitumor activity against human MIAPaCa2 cells xenografted in Ncr mouse assessed as tumor growth inhibition at 100 mg/kg, po administered daily for 22 days measured on day 22 relative to vehicle-treated control; format: functional; conditions: MIA PaCa-2, 528 h, read-out: TGI
Histone deacetylase 11 = target: T2, Histone deacetylase 11 (Homo sapiens, UniProt Q96DB2); test: Inhibition of HDAC11 (unknown origin)
T2 sequence (Q96DB2 whole entry): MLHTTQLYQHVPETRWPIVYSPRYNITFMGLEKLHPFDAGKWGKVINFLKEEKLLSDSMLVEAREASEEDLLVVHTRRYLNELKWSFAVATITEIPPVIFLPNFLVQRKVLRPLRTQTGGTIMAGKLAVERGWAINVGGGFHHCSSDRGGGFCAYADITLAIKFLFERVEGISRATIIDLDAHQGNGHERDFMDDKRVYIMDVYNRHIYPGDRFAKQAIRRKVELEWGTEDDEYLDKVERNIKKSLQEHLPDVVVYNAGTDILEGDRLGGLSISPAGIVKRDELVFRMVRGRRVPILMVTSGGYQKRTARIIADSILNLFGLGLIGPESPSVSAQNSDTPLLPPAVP

NCI-H69 [7] = test: Cytotoxicity against human H69 cells; format: functional, cell-based
Histone deacetylase 2 = Histone deacetylase 2 (Homo sapiens, UniProt Q92769); test: Inhibition of HDAC2 (unknown origin)
Histone deacetylase 3 = Histone deacetylase 3 (Homo sapiens, UniProt O15379); test: Inhibition of HDAC3 (unknown origin)
[8] = target: T3, Protein deacetylase HDAC6 (Homo sapiens, UniProt Q9UBN7); test: Inhibition of HDAC6 (unknown origin)
T3 sequence (Q9UBN7 whole entry): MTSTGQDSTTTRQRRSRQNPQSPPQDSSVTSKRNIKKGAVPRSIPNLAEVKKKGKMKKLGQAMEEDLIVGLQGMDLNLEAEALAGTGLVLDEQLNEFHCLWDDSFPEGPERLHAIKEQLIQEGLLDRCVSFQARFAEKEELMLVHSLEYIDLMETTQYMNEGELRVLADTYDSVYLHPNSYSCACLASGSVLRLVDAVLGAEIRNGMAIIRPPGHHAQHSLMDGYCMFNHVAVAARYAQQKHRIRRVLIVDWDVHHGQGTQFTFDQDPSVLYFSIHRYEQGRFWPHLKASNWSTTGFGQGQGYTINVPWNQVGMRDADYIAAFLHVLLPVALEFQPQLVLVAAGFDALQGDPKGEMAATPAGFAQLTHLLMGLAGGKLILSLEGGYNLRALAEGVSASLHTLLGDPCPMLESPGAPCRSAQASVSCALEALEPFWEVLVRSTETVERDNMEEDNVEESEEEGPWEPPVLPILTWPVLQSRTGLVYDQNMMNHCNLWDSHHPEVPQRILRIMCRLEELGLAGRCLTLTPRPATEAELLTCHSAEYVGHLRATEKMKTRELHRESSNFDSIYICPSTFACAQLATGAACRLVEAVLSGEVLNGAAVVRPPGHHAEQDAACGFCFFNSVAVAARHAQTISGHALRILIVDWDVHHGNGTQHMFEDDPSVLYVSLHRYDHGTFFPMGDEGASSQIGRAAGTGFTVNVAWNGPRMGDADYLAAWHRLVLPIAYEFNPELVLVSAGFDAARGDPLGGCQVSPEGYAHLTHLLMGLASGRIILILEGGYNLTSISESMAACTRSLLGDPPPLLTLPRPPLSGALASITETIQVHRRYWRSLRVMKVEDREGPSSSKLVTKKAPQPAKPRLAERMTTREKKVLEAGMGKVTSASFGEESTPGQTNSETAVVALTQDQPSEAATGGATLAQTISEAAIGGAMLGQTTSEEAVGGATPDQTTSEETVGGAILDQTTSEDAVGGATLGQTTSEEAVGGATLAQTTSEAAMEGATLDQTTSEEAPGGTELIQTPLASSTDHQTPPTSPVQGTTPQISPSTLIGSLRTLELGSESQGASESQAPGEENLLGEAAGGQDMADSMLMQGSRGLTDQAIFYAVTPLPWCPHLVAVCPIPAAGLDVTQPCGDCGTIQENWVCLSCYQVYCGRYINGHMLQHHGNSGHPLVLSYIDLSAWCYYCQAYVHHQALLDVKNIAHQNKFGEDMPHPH

[9] = Cytotoxicity against human H23 cells; format: functional, cell-based; conditions: NCI-H23
MDA-MB-231 = test: Cytotoxicity against human MDA-MB-231 cells; format: functional, cell-based
Histone deacetylase 1 = Histone deacetylase 1 (Homo sapiens, UniProt Q13547); test: Inhibition of HDAC1 (unknown origin)
Histone deacetylase 5 = Histone deacetylase 5 (Homo sapiens, UniProt Q9UQL6); test: Inhibition of HDAC5 (unknown origin)
[10] = Cytotoxicity against human Hep3B cells; format: functional, cell-based, Hep 3B2
[11] = target: T4, Polyamine deacetylase HDAC10 (Homo sapiens, UniProt Q969S8); test: Inhibition of HDAC10 (unknown origin)
T4 sequence (Q969S8 whole entry): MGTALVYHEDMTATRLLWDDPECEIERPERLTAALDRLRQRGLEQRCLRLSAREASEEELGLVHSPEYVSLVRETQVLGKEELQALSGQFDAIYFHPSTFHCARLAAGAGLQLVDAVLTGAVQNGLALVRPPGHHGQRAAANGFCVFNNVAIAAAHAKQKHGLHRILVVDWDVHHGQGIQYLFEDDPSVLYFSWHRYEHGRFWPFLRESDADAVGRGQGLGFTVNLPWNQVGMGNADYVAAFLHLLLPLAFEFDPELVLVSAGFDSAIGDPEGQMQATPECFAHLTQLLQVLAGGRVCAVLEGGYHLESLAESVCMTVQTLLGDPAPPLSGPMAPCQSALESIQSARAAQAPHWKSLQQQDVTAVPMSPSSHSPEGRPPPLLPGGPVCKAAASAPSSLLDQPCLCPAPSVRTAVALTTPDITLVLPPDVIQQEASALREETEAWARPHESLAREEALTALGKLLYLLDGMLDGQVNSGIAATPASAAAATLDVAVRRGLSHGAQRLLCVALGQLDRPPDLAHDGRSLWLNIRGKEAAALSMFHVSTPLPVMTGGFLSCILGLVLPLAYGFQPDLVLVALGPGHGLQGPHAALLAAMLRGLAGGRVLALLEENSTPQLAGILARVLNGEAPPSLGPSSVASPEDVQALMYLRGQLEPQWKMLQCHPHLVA

NCI-H295R = test: Cytotoxicity against human NCI-H295R cells; format: functional, cell-based
NCI-H69 [12] = test: Cytotoxicity against […] expressing human H69 cells; format: functional, cell-based
[13] = Cytotoxicity against human VCaP cells; format: functional, cell-based
[14] = Cytotoxicity against human A2780C/P cells; format: functional, cell-based
Mus musculus = test: Toxicity in human MiaPaCa2 cells xenografted Ncr mouse at 50 to 100 mg/kg, po administered daily for 22 days; format: organism-based; parameters: dose 50-100 mg/kg, route oral; conditions: in vivo, 528 h

Histone deacetylase 5, sequence (Q9UQL6 whole entry): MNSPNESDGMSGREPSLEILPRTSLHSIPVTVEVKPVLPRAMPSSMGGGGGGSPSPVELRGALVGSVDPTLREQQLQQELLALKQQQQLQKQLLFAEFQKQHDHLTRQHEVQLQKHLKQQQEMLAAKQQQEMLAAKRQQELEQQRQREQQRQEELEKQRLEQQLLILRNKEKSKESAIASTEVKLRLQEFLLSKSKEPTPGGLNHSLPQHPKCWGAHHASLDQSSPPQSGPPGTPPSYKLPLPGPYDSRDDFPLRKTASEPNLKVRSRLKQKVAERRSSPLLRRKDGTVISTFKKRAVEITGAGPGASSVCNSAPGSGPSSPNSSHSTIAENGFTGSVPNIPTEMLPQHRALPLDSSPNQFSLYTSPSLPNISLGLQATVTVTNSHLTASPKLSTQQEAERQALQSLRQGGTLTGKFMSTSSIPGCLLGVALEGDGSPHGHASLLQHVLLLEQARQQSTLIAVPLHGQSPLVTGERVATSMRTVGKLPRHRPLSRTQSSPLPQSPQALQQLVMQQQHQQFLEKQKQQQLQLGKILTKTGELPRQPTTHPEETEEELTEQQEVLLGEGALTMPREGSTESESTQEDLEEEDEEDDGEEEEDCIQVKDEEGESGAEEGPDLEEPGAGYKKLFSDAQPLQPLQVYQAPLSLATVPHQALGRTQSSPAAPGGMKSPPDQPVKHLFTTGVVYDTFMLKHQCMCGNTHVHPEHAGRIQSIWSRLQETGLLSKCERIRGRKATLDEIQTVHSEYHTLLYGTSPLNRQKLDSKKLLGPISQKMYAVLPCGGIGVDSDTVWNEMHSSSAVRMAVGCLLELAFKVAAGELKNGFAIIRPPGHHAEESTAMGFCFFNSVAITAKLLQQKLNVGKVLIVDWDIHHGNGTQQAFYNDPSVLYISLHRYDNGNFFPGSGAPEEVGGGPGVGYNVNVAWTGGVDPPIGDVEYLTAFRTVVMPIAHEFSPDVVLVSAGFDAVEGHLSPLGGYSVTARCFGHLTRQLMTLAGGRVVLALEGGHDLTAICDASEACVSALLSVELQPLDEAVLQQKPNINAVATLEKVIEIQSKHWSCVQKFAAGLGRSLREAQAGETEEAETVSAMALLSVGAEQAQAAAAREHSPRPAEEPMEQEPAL
Histone deacetylase 1, sequence (Q13547 whole entry): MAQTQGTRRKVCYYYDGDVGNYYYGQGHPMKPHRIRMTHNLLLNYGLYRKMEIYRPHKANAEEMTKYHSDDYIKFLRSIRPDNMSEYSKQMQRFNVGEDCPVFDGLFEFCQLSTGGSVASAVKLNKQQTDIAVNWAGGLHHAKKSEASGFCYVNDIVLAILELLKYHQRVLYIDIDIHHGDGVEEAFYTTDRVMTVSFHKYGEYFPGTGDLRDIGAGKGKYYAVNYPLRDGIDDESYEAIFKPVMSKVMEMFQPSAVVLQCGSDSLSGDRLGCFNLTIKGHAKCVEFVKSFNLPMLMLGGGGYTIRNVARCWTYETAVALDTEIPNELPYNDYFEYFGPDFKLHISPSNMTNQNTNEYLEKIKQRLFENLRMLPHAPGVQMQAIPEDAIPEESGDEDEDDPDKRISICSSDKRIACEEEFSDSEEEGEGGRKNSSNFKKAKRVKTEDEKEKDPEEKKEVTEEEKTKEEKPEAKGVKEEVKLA
Histone deacetylase 4, sequence (P56524 whole entry): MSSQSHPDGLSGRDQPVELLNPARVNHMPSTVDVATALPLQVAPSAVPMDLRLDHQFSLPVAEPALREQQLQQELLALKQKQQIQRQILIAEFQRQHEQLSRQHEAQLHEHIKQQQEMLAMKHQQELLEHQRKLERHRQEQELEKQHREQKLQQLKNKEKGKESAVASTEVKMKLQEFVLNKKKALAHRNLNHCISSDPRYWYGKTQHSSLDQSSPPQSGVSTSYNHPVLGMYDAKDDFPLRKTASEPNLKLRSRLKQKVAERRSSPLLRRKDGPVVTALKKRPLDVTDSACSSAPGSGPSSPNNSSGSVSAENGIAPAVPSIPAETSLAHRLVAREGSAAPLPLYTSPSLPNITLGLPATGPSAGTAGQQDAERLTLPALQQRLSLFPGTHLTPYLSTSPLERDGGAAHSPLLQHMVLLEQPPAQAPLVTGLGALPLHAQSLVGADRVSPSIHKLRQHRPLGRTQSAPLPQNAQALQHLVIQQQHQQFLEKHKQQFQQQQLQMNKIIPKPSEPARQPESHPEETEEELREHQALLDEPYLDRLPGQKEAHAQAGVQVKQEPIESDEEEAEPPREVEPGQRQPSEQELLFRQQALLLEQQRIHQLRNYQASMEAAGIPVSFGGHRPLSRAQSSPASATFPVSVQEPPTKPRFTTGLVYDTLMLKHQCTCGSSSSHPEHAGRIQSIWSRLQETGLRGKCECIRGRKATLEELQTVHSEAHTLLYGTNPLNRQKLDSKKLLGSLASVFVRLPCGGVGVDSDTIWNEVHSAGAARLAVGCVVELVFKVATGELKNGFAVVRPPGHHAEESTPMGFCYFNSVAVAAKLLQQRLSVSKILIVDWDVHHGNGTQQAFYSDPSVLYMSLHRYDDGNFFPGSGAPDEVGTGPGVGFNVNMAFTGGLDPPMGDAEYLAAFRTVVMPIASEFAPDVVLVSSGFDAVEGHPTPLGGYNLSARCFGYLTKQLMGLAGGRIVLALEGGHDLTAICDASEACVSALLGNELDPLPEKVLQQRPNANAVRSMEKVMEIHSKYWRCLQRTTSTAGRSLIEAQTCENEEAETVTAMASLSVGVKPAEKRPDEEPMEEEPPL
Histone deacetylase 2, sequence (Q92769 whole entry): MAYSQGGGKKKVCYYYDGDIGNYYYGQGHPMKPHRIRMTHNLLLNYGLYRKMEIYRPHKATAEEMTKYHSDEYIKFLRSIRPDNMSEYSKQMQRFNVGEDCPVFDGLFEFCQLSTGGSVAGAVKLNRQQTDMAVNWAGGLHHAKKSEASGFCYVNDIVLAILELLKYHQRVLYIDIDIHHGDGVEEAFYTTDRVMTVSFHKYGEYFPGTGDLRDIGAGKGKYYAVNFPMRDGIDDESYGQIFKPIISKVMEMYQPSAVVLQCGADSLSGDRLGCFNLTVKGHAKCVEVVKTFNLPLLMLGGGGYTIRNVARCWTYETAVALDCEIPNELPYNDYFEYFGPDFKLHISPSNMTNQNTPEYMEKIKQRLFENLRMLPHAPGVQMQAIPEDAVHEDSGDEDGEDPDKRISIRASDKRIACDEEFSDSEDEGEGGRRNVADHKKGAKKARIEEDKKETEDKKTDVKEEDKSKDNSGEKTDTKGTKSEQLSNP
Histone deacetylase 3, sequence (O15379 whole entry): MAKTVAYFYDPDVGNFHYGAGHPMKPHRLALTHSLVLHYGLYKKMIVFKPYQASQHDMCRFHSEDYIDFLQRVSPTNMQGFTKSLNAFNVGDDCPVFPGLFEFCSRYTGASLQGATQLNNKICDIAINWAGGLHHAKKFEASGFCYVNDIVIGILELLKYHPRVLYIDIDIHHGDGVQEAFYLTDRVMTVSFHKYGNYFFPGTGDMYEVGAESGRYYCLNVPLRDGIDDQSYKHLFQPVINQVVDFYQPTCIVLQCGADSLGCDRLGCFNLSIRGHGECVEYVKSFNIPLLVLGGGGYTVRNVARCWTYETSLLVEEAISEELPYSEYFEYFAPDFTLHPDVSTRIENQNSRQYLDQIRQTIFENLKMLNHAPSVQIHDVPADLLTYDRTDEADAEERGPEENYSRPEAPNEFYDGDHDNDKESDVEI
Histone deacetylase 9, sequence (Q9UKV0 whole entry): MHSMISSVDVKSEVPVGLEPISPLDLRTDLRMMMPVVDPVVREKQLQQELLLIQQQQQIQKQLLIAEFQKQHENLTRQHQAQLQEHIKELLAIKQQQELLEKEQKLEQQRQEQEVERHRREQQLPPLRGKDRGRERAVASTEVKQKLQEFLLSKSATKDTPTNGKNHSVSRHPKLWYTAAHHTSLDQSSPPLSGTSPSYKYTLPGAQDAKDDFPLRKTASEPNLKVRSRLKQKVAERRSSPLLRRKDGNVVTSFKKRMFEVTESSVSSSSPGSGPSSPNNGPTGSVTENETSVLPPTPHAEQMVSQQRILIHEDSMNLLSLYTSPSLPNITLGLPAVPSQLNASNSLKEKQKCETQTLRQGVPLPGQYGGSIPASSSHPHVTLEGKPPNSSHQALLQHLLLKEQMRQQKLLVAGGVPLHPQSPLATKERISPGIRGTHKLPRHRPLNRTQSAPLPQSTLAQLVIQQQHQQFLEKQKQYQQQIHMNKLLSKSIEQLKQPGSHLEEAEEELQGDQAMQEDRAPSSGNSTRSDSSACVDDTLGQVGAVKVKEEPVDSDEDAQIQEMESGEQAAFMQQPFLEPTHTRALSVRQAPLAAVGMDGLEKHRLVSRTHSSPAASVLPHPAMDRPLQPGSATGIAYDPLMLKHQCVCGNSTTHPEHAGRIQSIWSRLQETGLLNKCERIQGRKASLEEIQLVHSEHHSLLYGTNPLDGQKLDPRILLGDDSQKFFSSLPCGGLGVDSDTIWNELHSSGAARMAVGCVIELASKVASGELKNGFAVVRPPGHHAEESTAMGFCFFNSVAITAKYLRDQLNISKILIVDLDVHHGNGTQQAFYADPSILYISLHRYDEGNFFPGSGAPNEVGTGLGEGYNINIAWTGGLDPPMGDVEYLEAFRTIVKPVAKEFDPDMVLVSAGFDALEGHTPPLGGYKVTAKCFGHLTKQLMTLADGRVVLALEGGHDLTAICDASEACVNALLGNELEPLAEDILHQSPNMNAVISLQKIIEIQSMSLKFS

Structure (SMILES): O=C(CCCCCCc1nc2ccc(F)cc2[nH]1)NO
- IC50 (SK-OV-3): 1900 nM

Structure (SMILES): O=C(CCCCCCc1nc2ccc(-c3ccc(F)cc3)cc2[nH]1)NO
- IC50 (SK-OV-3): 1200 nM

Structure (SMILES): O=C(CCCCCCc1nc2ccccc2n1-c1ccccc1)NO
- IC50 (SK-OV-3): > 20000 nM

Structure (SMILES): O=C(CCCCCCc1nc2ccc(-c3cccc(F)c3)cc2[nH]1)NO
- IC50 (SK-OV-3): 1500 nM

Structure (SMILES): COc1ccc(-c2ccc3nc(CCCCCCC(=O)NO)[nH]c3c2)cc1
- IC50 (SK-OV-3): 3100 nM

Structure (SMILES): O=C(CCCCCCc1nc2ccncc2[nH]1)NO
- IC50 (SK-OV-3): > 20000 nM

Structure (SMILES): O=C(CCCCCCC(=O)Nc1ccccc1)NO [VORINOSTAT]
- IC50 [1]: 2300 nM
- IC50 (SK-OV-3): 2300 nM

Structure (SMILES): Nc1ccn([C@@H]2O[C@H](CO)[C@@H](O)C2(F)F)c(=O)n1
- TGI (MIA PaCa-2 [2]): Active

Structure (SMILES): O=C(CCCCCCc1nc2ccc(-c3cncnc3)cc2[nH]1)NO
- IC50 (SK-OV-3): 2600 nM

Structure (SMILES): O=C(CCCCCCc1nc2ccccc2n1C1CCCC1)NO
- IC50 (SK-OV-3): 4800 nM

Structure (SMILES): O=C(CCCCCCc1nc2ccc(Cl)cc2[nH]1)NO
- IC50 (SK-OV-3): 320 nM

Structure (SMILES): O=C(CCCCCCc1nc2ccc(Br)cc2[nH]1)NO
- IC50 (Histone deacetylase 4): 279 nM
- IC50 [3]: 2200 nM
- IC50 [4]: 980 nM
- IC50 (Histone deacetylase 8): 282 nM
- IC50 [5]: 230 nM
- IC50 (Histone deacetylase 9): 1.1 nM
- IC50 [1]: 89 nM
- IC50 (A2780): 1900 nM
- inhibition in vivo at 100 mg/kg (MIA PaCa-2 [6]): 74%
- IC50 (Histone deacetylase 11): 33.4 nM
- IC50 (NCI-H69 [7]): 150 nM
- IC50 (Histone deacetylase 2): 34.1 nM
- IC50 (Histone deacetylase 3): 6.4 nM
- IC50 [8]: 1.9 nM
- IC50 [9]: 560 nM
- IC50 (MDA-MB-231): 820 nM
- IC50 (Histone deacetylase 1): 20.2 nM
- IC50 (Histone deacetylase 5): 2.5 nM
- IC50 [10]: 610 nM
- IC50 [11]: 3 nM
- IC50 (NCI-H295R): 180 nM
- IC50 (SK-OV-3): 260 nM
- IC50 (NCI-H69 [12]): 170 nM
- IC50 [13]: 2400 nM
- IC50 [14]: 2000 nM
- Activity (Mus musculus): Non-toxic

Structure (SMILES): O=C(CCCCCCc1nc2ccccc2[nH]1)NO
- IC50 (SK-OV-3): 2700 nM

Structure (SMILES): O=C(CCCCCCc1nc2ccccc2n1C1CC1)NO
- IC50 (SK-OV-3): 9500 nM

Structure (SMILES): CN(C)c1ccc2nc(CCCCCCC(=O)NO)[nH]c2c1
- IC50 (SK-OV-3): 1200 nM

Structure (SMILES): Cn1c(CCCCCCC(=O)NO)nc2ccccc21
- IC50 (SK-OV-3): 3000 nM

Structure (SMILES): CN(C)c1ccc(-c2ccc3nc(CCCCCCC(=O)NO)[nH]c3c2)cc1
- IC50 (SK-OV-3): 6600 nM

Structure (SMILES): O=C(CCCCCCc1nc2ccc(-c3ccccc3F)cc2[nH]1)NO
- IC50 (SK-OV-3): 7400 nM

Structure (SMILES): O=C(CCCCCCc1nc2cccc(Cl)c2[nH]1)NO
- IC50 (SK-OV-3): 10000 nM

Structure (SMILES): O=C(CCCCCCc1nc2ccc(-c3ccccc3)cc2[nH]1)NO
- IC50 (SK-OV-3): 100 nM

Structure (SMILES): O=C(CCCCCc1nc2ccccc2[nH]1)NO
- IC50 (SK-OV-3): 11000 nM

Structure (SMILES): COc1ccc2nc(CCCCCCC(=O)NO)[nH]c2c1
- IC50 (SK-OV-3): 11000 nM
